Source: ChEMBL document CHEMBL4028801, “A multifactorial approach to hepatobiliary transporter assessment enables improved therapeutic compound development” (Toxicol Sci, 2013)
Where a name gives a salt, the structure may show the parent alone.

Assays:
[1] = biological target: T1, ATP-binding cassette sub-family C member 4 (Homo sapiens, UniProt O15439); assay: Inhibition of human MRP4 overexpressed in Sf9 cell membrane vesicles assessed as uptake of [3H]-estradiol-17beta-D-glucuronide in presence of ATP and GSH measured after 20 mins by membrane vesicle transport assay; assay type: ADME, cell-based
T1 sequence (O15439 whole entry): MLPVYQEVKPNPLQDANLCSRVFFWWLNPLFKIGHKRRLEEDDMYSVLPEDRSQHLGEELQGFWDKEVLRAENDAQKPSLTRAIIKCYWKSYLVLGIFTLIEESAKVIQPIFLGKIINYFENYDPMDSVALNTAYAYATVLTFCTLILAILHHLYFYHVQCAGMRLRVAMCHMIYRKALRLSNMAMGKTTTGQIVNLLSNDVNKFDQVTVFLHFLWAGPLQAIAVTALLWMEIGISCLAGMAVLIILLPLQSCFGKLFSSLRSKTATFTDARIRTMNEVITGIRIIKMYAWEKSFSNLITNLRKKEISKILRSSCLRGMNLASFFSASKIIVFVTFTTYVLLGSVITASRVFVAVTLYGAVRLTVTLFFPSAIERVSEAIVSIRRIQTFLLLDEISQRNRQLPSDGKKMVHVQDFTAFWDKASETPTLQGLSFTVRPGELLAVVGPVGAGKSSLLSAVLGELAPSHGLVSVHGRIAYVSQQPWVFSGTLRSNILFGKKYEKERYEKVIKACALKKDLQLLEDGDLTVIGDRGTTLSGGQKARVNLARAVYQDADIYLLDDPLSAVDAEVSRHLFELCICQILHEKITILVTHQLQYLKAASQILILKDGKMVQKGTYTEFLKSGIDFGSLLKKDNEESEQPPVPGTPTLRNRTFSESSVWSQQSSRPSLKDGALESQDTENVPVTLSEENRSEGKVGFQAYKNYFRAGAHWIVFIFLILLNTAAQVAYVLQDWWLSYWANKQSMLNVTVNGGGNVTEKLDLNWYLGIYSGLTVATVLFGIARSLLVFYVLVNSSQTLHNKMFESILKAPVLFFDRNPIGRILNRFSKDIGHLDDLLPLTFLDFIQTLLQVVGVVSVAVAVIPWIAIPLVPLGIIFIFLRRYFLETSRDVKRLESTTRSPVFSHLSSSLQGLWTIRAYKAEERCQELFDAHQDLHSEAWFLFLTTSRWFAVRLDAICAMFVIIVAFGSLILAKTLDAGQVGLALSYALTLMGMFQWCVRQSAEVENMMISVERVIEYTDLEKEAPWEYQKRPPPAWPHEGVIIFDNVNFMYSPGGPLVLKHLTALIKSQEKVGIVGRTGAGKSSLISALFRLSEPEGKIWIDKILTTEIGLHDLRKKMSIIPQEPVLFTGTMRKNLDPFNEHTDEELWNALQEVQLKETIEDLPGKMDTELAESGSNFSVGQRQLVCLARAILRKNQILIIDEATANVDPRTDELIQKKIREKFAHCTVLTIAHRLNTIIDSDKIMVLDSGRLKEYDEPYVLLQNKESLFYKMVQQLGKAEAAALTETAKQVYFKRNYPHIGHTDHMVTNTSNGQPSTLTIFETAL

[2] = biological target: ATP-binding cassette sub-family C member 3 (Homo sapiens, UniProt O15438); assay: Inhibition of human MRP3 overexpressed in Sf9 insect cell membrane vesicles assessed as uptake of [3H]-estradiol-17beta-D-glucuronide in presence of ATP and GSH measured after 10 mins by membrane vesicle transport assay; assay type: ADME, cell-based
[3] = biological target: ATP-binding cassette sub-family C member 2 (Homo sapiens, UniProt Q92887); assay: Inhibition of human MRP2 overexpressed in Sf9 cell membrane vesicles assessed as uptake of [3H]-estradiol-17beta-D-glucuronide in presence of ATP and GSH measured after 20 mins by membrane vesicle transport assay
Chain of ATP-binding cassette sub-family C member 2 (Q92887 whole entry): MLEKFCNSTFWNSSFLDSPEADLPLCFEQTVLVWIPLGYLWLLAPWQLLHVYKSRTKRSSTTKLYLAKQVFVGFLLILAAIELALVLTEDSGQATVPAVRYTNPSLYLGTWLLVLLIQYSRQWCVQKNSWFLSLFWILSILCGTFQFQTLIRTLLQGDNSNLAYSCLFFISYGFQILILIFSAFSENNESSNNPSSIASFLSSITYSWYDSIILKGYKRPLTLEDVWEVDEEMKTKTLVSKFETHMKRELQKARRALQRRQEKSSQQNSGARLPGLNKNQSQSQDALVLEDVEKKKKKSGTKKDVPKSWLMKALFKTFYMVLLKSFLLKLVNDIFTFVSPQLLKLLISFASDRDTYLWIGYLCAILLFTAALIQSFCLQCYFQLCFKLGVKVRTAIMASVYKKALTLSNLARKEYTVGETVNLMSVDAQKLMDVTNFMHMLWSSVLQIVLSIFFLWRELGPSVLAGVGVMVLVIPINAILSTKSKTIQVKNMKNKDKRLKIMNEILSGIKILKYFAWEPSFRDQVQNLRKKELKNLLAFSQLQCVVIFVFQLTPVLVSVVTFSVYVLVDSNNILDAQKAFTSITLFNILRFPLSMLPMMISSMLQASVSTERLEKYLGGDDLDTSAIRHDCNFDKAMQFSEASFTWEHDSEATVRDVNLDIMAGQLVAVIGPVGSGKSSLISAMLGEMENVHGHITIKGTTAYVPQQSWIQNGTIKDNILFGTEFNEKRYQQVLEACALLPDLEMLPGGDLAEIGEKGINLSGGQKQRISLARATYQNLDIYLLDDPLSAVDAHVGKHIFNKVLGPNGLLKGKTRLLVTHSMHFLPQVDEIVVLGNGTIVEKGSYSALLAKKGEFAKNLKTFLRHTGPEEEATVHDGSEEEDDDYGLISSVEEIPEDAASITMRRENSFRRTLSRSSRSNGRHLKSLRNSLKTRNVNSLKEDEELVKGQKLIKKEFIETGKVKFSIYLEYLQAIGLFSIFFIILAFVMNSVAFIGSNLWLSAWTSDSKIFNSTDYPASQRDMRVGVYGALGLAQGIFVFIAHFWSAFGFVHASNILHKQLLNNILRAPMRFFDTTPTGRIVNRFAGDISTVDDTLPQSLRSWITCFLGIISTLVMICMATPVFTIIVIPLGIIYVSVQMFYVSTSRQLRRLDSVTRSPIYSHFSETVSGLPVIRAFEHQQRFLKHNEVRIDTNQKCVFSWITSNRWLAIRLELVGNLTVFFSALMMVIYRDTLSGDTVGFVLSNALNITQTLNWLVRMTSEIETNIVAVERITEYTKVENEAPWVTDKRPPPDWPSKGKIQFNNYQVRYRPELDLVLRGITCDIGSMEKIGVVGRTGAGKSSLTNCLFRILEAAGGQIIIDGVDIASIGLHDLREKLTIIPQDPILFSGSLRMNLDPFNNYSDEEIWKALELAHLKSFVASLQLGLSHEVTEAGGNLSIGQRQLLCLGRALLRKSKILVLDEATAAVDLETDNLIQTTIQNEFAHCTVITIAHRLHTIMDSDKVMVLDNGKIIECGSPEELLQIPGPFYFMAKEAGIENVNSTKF

Chain of ATP-binding cassette sub-family C member 3 (O15438 whole entry): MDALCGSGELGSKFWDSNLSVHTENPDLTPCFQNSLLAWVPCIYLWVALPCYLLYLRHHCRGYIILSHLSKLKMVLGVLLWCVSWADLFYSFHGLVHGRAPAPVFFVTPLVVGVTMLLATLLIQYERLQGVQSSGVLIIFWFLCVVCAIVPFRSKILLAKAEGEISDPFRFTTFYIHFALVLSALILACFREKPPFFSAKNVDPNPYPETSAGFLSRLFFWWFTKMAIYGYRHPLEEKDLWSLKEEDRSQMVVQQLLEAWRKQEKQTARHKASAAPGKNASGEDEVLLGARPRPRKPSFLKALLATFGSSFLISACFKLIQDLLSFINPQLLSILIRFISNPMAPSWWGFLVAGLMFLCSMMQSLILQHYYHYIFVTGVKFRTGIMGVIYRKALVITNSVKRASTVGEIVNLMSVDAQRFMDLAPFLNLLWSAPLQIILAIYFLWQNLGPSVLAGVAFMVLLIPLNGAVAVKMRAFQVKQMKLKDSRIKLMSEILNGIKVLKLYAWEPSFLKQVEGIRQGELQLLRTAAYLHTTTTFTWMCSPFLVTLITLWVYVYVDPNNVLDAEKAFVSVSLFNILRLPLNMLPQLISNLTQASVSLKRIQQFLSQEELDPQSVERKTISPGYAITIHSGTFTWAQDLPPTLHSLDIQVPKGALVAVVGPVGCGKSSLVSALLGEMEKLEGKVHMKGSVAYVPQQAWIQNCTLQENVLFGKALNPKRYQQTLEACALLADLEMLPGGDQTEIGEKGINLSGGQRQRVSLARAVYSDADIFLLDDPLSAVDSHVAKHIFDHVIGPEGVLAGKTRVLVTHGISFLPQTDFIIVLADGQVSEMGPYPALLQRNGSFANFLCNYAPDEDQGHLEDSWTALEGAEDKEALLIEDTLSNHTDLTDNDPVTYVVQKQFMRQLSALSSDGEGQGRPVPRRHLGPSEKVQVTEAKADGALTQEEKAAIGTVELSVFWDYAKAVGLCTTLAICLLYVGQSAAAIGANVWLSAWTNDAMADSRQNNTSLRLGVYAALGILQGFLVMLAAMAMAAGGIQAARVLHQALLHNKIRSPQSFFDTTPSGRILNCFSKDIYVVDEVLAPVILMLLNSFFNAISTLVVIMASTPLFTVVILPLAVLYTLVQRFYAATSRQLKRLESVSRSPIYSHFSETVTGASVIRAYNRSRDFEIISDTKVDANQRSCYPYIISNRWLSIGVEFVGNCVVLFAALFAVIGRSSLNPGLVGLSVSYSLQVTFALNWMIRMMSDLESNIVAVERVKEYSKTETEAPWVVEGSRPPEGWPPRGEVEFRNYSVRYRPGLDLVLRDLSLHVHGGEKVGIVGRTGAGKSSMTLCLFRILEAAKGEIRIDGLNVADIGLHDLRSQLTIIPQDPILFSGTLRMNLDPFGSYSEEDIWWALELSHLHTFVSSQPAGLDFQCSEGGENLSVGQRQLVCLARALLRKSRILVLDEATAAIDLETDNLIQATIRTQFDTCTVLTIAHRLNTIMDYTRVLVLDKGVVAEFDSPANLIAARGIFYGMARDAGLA

Row | SMILES | IC50 [1] | IC50 [2] | IC50 [3]
1 | CCN(CC)CCCC(C)Nc1ccnc2cc(Cl)ccc12 (configuration not stated) [CHLOROQUINE] | 104 µM | > 133 µM | > 133 µM
2 | CN(C)CCC(c1ccc(Br)cc1)c1ccccn1 (configuration not stated) [BROMPHENIRAMINE MALEATE] | > 133 µM | > 133 µM | > 133 µM
3 | COc1cc2c(c(OC)c1OC)-c1ccc(OC)c(=O)cc1[C@@H](NC(C)=O)CC2 [COLCHICINE] | > 133 µM | > 133 µM | > 133 µM
4 | O=C(O)c1cn(C2CC2)c2cc(N3CCNCC3)c(F)cc2c1=O [CIPROFLOXACIN] | > 133 µM | > 133 µM | > 133 µM
5 | CO[C@@]1(NC(=O)C2SC(=C(C(N)=O)C(=O)O)S2)C(=O)N2C(C(=O)O)=C(CSc3nnnn3C)CS[C@@H]21 (some centres not stated) [CEFOTETAN] |  | 79 µM | 
6 | CC(=O)Nc1nnc(S(N)(=O)=O)s1 [ACETAZOLAMIDE] | > 133 µM | > 133 µM | > 133 µM
7 | Nc1ccc(S(=O)(=O)c2ccc(N)cc2)cc1 [DAPSONE] | > 133 µM | > 133 µM | > 133 µM
8 | CN[C@@H]1C[C@H]2O[C@@](C)([C@@H]1OC)n1c3ccccc3c3c4c(c5c6ccccc6n2c5c31)C(=O)NC4 [STAUROSPORINE] | 37.9 µM | > 133 µM | > 133 µM
9 | C[C@@H](c1ncncc1F)[C@](O)(Cn1cncn1)c1ccc(F)cc1F [VORICONAZOLE] | > 133 µM | > 133 µM | > 133 µM
10 | CN/C(=N/CCSCc1nc[nH]c1C)NC#N [CIMETIDINE] | > 133 µM | > 133 µM | > 133 µM
11 | NS(=O)(=O)c1cc(C(=O)O)c(NCc2ccco2)cc1Cl [FUROSEMIDE] | > 133 µM | > 133 µM | > 133 µM
12 | Nc1ccn([C@@H]2O[C@H](CO)[C@@H](O)[C@@H]2O)c(=O)n1 [CYTARABINE] | > 133 µM | > 133 µM | > 133 µM
13 | CC[C@H]1OC(=O)[C@H](C)[C@@H](O[C@H]2C[C@@](C)(OC)[C@@H](O)[C@H](C)O2)[C@H](C)[C@@H](O[C@@H]2O[C@H](C)C[C@H](N(C)C)[C@H]2O)[C@](C)(O)C[C@@H](C)C(=O)[C@H](C)[C@@H](O)[C@]1(C)O | 68.2 µM | > 133 µM | > 133 µM
14 | CC1=C(C(=O)O)N2C(=O)[C@@H](NC(=O)[C@H](N)c3ccc(O)cc3)[C@H]2SC1 [CEFADROXIL] | > 133 µM | > 133 µM | > 133 µM
15 | COc1ccc([C@@H]2Sc3ccccc3N(CCN(C)C)C(=O)[C@@H]2OC(C)=O)cc1 [DILTIAZEM] | > 133 µM | > 133 µM | > 133 µM
16 | OCCOCCN1CCN(C2=Nc3ccccc3Sc3ccccc32)CC1 [QUETIAPINE FUMARATE] | > 133 µM | > 133 µM | > 133 µM
17 | CC[C@@H](CO)NCCN[C@@H](CC)CO [ETHAMBUTOL HYDROCHLORIDE] | > 133 µM | 88.2 µM | > 133 µM
18 | CCCCC[C@H](O)/C=C/[C@H]1[C@H](O)CC(=O)[C@@H]1CCCCCCC(=O)O [ALPROSTADIL] | 2.3 µM | 26.9 µM | > 133 µM
19 | NCCCC[C@H](N[C@@H](CCc1ccccc1)C(=O)O)C(=O)N1CCC[C@H]1C(=O)O [LISINOPRIL ANHYDROUS] | > 133 µM | > 133 µM | > 133 µM
20 | C[C@]12CC[C@@H]3c4ccc(O)cc4CC[C@H]3[C@@H]1CC[C@@H]2O [ESTRADIOL] | > 133 µM | > 133 µM | 
21 | COc1ccc(CCN(C)CCCC(C#N)(c2ccc(OC)c(OC)c2)C(C)C)cc1OC (configuration not stated) |  | > 133 µM | > 133 µM
22 | CN1[C@@H]2CC[C@H]1C[C@@H](OC(=O)C(CO)c1ccccc1)C2 (mixture of isomers) [ATROPINE] | > 133 µM | > 133 µM | > 133 µM
23 | Cn1cnc([N+](=O)[O-])c1Sc1ncnc2nc[nH]c12 [AZATHIOPRINE] | > 133 µM | > 133 µM | > 133 µM
24 | Clc1ccc2c(c1)CCc1cccnc1C2=C1CCNCC1 [DESLORATADINE] | > 133 µM | > 133 µM | > 133 µM
25 | COc1cc([C@@H]2c3cc4c(cc3[C@@H](O[C@@H]3O[C@@H]5CO[C@@H](C)O[C@H]5[C@H](O)[C@H]3O)[C@H]3COC(=O)[C@H]23)OCO4)cc(OC)c1O [ETOPOSIDE] | > 133 µM | > 133 µM | > 133 µM
26 | Cc1nc2n(c(=O)c1CCN1CCC(c3noc4cc(F)ccc34)CC1)CCCC2 [RISPERIDONE] | > 133 µM | > 133 µM | > 133 µM
27 | C(=C\c1ccccc1)/CN1CCN(C(c2ccccc2)c2ccccc2)CC1 [CINNARIZINE] | > 133 µM | > 133 µM | > 133 µM
28 | O=C(N[C@H](CO)[C@H](O)c1ccc([N+](=O)[O-])cc1)C(Cl)Cl [CHLORAMPHENICOL] | > 133 µM | > 133 µM | 

Further lines, results first:

Row | IC50 [1] | IC50 [2] | IC50 [3] | SMILES
29 | 20.9 µM | > 133 µM | > 133 µM | O=C1CN(/N=C/c2ccc([N+](=O)[O-])o2)C(=O)N1 [NITROFURANTOIN]
30 | > 133 µM | > 133 µM | > 133 µM | COCCOC(=O)C1=C(C)NC(C)=C(C(=O)OC(C)C)C1c1cccc([N+](=O)[O-])c1 (configuration not stated) [NIMODIPINE]
31 | > 133 µM | > 133 µM | > 133 µM | CCn1cc(C(=O)O)c(=O)c2cc(F)c(N3CCNCC3)cc21 [NORFLOXACIN]
32 | > 133 µM | > 133 µM | > 133 µM | OC(CCN1CCCC1)(c1ccccc1)C1CCCCC1 (configuration not stated) [PROCYCLIDINE]
33 | > 133 µM | > 133 µM | > 133 µM | CN(C)C(=N)N=C(N)N [METFORMIN]
34 | > 133 µM | > 133 µM | > 133 µM | NC(=O)NO [HYDROXYUREA]
35 | > 133 µM | > 133 µM | > 133 µM | COCCc1ccc(OCC(O)CNC(C)C)cc1 (configuration not stated) [METOPROLOL]
36 | 15.5 µM | > 133 µM | > 133 µM | COC(=O)Nc1nc2ccc(C(=O)c3ccccc3)cc2[nH]1 [MEBENDAZOLE]
37 | > 133 µM | > 133 µM | > 133 µM | CN1CCN2c3ncccc3Cc3ccccc3C2C1 (configuration not stated) [MIRTAZAPINE]
38 | > 133 µM | > 133 µM | > 133 µM | Nc1cc(N2CCCCC2)nc(N)[n+]1[O-] [MINOXIDIL]
39 | > 133 µM | > 133 µM |  | O=C(CCCN1CCC(O)(c2ccc(Cl)cc2)CC1)c1ccc(F)cc1 [HALOPERIDOL]
40 | > 133 µM | > 133 µM | > 133 µM | CNCCCC12CCC(c3ccccc31)c1ccccc12 [MAPROTILINE]
41 | > 133 µM | > 133 µM | > 133 µM | CCN(CC)CC(=O)Nc1c(C)cccc1C [LIDOCAINE]
42 | > 133 µM | > 133 µM | > 133 µM | CCS(=O)(=O)CCn1c([N+](=O)[O-])cnc1C [TINIDAZOLE]
43 | 1.5 µM | 14.6 µM |  | O=C(O)c1cc(/N=N/c2ccc(S(=O)(=O)Nc3ccccn3)cc2)ccc1O [SULFASALAZINE]
44 | > 133 µM | > 133 µM | > 133 µM | N#C[C@@H]1C[C@@H]2C[C@@H]2N1C(=O)[C@@H](N)C12CC3CC(CC(O)(C3)C1)C2 [SAXAGLIPTIN HYDROCHLORIDE]
45 |  | > 133 µM | > 133 µM | O=C(O)CCc1nc(-c2ccccc2)c(-c2ccccc2)o1 [OXAPROZIN]
